Reference: US20240148664A1, “LIPID AND COMPOSITION” (SOGO PHARMACEUTICAL CO., LTD., priority 2021, published 2024)
“Also recorded” adds a separate entry of the source.

What was measured:
Format in all cases: cell-based
HEK293T cells = assay: Evaluation of protein expression effect (luciferase luminescence), Cell experiment 2; settings: lipid nanoparticle containing mRNA, 100 ng mRNA/20 μL per well, 24 hours, amount of luminescence as index
Method: (§1) For lipids (Ia), (Ib), and (Ie) of Examples 1, 2, and 5, a cell experiment was carried out by using HEK293T cells and NIH3T3 cells in order to evaluate lipid nanoparticles encapsulating an mRNA. By transfecting the cells with lipid nanoparticles and measuring the amount of a predetermined protein produced, the performance of the lipid nanoparticles used can be evaluated. Hereinafter, the procedure of the cell experiment will be shown.
(§2) A. Seeding of Cells • (i) A liquid medium (DMEM High glucose, FBS+, P/S+) was temperature-controlled in an incubator set at 37° C. • (ii) A cryotube containing cells was taken out from a −80° C. freezer and thawed at once in the incubator set at 37° C. • (iii) A test tube was subjected to a centrifuge to precipitate the cells. • (iv) The supernatant was aspirated, and the liquid medium was added and gently tapped to disperse the cells. • (v) A small amount of the cells-dispersed liquid medium was collected, and the number of cells was observed and counted under a microscope. • (vi) The cells were seeded in three 24-well black plates such that the number of cells was 1×10^4 cells per well. The 24-well black plates were placed in an incubator, and the cells were cultured for 24 hours under conditions of 37° C. and 5% CO2.
(§3) B. Transfection • (i) A lipid nanoparticle-containing solution including an mRNA was concentrated such that the mRNA concentration was 100 ng/20 μL (=0.005 μg/μL). • (ii) A liquid medium (DMEM High glucose, FBS-, P/S-) and FBS were warmed to 37° C., required amounts of the liquid medium and FBS were mixed (FBS concentration of liquid medium at this time: 12.5%), and the prepared liquid medium was filter-sterilized through a 0.22 μm filter. • (iii) The liquid medium supernatant in the 24-well black plates in which the cells were cultured was aspirated and 80 μL per well of the prepared liquid medium was added. • (iv) 20 μL per well of RFW and the lipid nanoparticle-containing solution adjusted to the above concentration was added. • (v) The 24-well black plates were placed in an incubator, and the cells were cultured for 24 hours under conditions of 37° C. and 5% CO2.
(§4) C. Evaluation of Protein Expression Effect (Detection of Gaussia Luciferase (GLuc))
(§5) Evaluation of the protein expression effect was carried out by using Gaussia Luciferase Assay Kit manufactured by Thermo Scientific. • (i) The cells cultured in B. (v) above were taken out from the incubator and allowed to stand at room temperature. • (ii) 20 μL of the supernatant in the plates was collected and added to a fresh 96-well white plate. • (iii) 100× Coelenterazine and Gaussia Glow Assay Buffer attached to the kit were returned to room temperature and mixed at 1:100 to prepare a solution. The prepared solution was added to the supernatant at 50 μL per well by using a multipipette. • (iv) The plate was shielded from light with aluminum foil, allowed to stand for 10 minutes, and then measured for the amount of luminescence with a plate reader (manufactured by TECAN, Infinite M200) (measurement time: 2 seconds), and the protein expression level was calculated by using the resulting amount of luminescence as an index.

NIH3T3 cells = assay: as above; settings: lipid nanoparticle containing mRNA, 100 ng mRNA/20 μL per well, 24 hours, amount of luminescence as index
Method: as §1, §2, §3, §4, §5

[1] = system: HEK293T cells and NIH3T3 cells; assay: Evaluation of toxicity (CellTiter-Fluor Cell Viability Assay, CTF); settings: lipid nanoparticle containing mRNA; number of surviving cells relative to cells without lipid nanoparticle set at 1; one rating per lipid, printed on the HEK293T line
Method: as §1
as §2, with “CO2. […]” for “CO2.”
D. Evaluation of Toxicity (CellTiter-Fluor (Registered Trademark) Cell Viability Assay) • (i) The CellTiter-Fluor (registered trademark) Cell Viability (CTF) Assay Reagent was completely thawed in a 37° C. water bath. • (ii) GF-AFC Substrate was uniformly mixed by using a vortex mixer. • (iii) The required amounts of Buffer and GF-AFC Substrate attached to the CTF Assay Reagent (Kit) were mixed at a mixing ratio of 10 mL:10 μL. • (iv) 100 μL per well of the mixed CTF Reagent mixture was added to a 24-well black plate containing the cells cultured in B. (v) above, and the plate was quickly shielded from light with aluminum foil, and then shaken on a plate shaker for 30 seconds. • (v) The plate was placed in an incubator, […], and the cells were cultured for 30 minutes under conditions of 37° C. and 5% CO2. • (vi) The fluorescence intensity was measured with a plate reader (excitation wavelength of 380 nm, fluorescence wavelength of 505 nm). Based on the obtained measurement results, the number of surviving cells was calculated with the fluorescence intensity of cells to which no lipid nanoparticle was added set at 1. […]

| Structure (SMILES) | Protein expression level (HEK293T cells) | Protein expression level (NIH3T3 cells) | CTF Assay [1] |
| --- | --- | --- | --- |
| CCCCCCCC/C=C\CCCCCCCCC(CCCCCCC/C=C\CCCCCCCC)OC(=O)C(CC(=O)O)NC(=O)C(N)CCCNC(=N)N (stereo not drawn) [Example 1, 3-(2-amino-5-guanidinopentanamido)-4-(((9Z,27Z)-hexatriaconta-9,27-dien-18-yl)oxy)-4-oxobutanoic acid] | 100,000 | 5,000 | low cytotoxicity; also recorded: ⊚ (When the number of surviving cells was more than 0.80 and 1.00 or less, a rating of double-circle (excellent) was given) |
| CCCCCCCC/C=C\CCCCCCCCC(CCCCCCC/C=C\CCCCCCCC)OC(=O)C(CCC(=O)O)NC(=O)C(N)CCCNC(=N)N (stereo not drawn) [Example 2, 4-(2-amino-5-guanidinopentanamido)-5-(((9Z,27Z)-hexatriaconta-9,27-dien-18-yl)oxy)-5-oxopentanoic acid] | 800,000 | 25,000 | low cytotoxicity; also recorded: ⊚ (When the number of surviving cells was more than 0.80 and 1.00 or less, a rating of double-circle (excellent) was given) |
| CCCCCCCC/C=C\CCCCCCCCC(CCCCCCC/C=C\CCCCCCCC)OC(=O)C(NC(=O)C(N)CCCNC(=N)N)C(C)O [Example 5, (9Z,27Z)-hexatriaconta-9,27-dien-18-yl (2S)-2-((S)-2-amino-5-guanidinopentanamido)-3-hydroxybutanoate] | 100,000 | 60,000 | low cytotoxicity; also recorded: ⊚ (When the number of surviving cells was more than 0.80 and 1.00 or less, a rating of double-circle (excellent) was given) |
